{"source": "patent US9969752B2", "about": "“Inhibitors of HIF prolyl hydroxylase” (MERCK SHARP & DOHME CORP., priority 2014, dated 2018)", "molecular_target": "T1, Human HIF-PHD2 (Homo sapiens, UniProt Q9GZT9)", "T1 construct": "FLAG-tagged full length PHD2 expressed in and purified from baculovirus-infected Sf9 cells; FLAG; made in house; host or cells: baculovirus-infected Sf9 cells", "T1 sequence (Q9GZT9 whole entry)": "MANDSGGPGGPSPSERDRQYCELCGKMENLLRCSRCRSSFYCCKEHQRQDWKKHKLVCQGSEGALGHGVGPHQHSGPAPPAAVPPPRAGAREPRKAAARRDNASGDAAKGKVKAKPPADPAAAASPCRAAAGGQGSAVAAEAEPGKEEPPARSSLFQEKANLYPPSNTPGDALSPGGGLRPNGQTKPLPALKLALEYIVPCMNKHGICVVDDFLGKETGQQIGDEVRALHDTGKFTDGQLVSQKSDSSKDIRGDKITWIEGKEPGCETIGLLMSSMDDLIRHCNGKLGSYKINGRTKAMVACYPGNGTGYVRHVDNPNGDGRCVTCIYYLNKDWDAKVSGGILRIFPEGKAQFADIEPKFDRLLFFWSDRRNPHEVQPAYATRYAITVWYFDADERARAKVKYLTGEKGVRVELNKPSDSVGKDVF", "assay": "Inhibition of the hydroxylation of a HIF peptide by PHD2 (time resolved fluorescence, 384-well)", "format": "biochemical", "conditions": "FLAG-tagged full length PHD2, 0.2 μM 2-oxoglutarate, 0.5 μM HIF-1α peptide, 45 minutes at room temperature", "key": {"[1]": {"conditions": "read-out: MS m/z (M + 1)+ and human HIF-PHD2 IC50"}}, "note": "pIC50: −log10 of the molar value. Read-outs that look alike come from different tables or passages of the source.", "data": [{"molecule": "N#Cc1cc2c3c(c1)c(O)c(C(=O)NCC(=O)O)c(=O)n3C(c1ccc(C(F)(F)F)cc1)CO2", "note": "(stereo not shown) [Example 179, ammonium 2-(9-cyano-7-hydroxy-5-oxo-3-(4-(trifluoromethyl)phenyl)-3,5-dihydro-2H-[1,4]oxazino[2,3,4-ij]quinoline-6-carboxamido)acetate]", "values": [{"measurement": "pIC50", "setting": "[1]", "result": 8.34}]}, {"molecule": "O=C(O)CNC(=O)c1c(O)c2c(Cl)ccc3c2n(c1=O)CC(c1ccc(C(F)(F)F)cc1)O3", "note": "(single isomer, unassigned) [Example 70, 2-(8-Chloro-7-hydroxy-5-oxo-2-(4-(trifluoromethyl)phenyl)-3,5-dihydro-2H-[1,4]oxazino[2,3,4-ij]quinoline-6-carboxamido)acetic acid]", "values": [{"measurement": "pIC50", "setting": "read-out: Human HIF-PHD2 IC50", "result": 8.74}]}, {"molecule": "O=C(O)CNC(=O)c1c(O)c2cc(F)cc3c2n(c1=O)CC(c1ccc(C(F)(F)F)cc1)O3", "note": "(stereo not shown) [Example 66, 2-(9-Fluoro-7-hydroxy-5-oxo-2-(4-(trifluoromethyl)phenyl)-3,5-dihydro-2H-[1,4]oxazino[2,3,4-ij]quinoline-6-carboxamido)acetic acid]", "values": [{"measurement": "pIC50", "setting": "read-out: Human HIF-PHD2 IC50", "result": 8.30}]}, {"molecule": "N#Cc1ccc2c(O)c(C(=O)NCC(=O)O)c(=O)n3c2c1OCC3", "note": "[Example 37, 2-(10-cyano-7-hydroxy-5-oxo-3,5-dihydro-2H-[1,4]oxazino[2,3,4-ij]quinoline-6-carboxamido)acetic acid]", "values": [{"measurement": "pIC50", "setting": "read-out: Human HIF-PHD2 IC50", "result": 8.82}]}, {"molecule": "CS(=O)(=O)c1ccc2c(O)c(C(=O)NCC(=O)O)c(=O)n3c2c1OCC3Cc1ccc(C(F)(F)F)cc1", "note": "(stereo not shown) [Example 31, 2-(7-Hydroxy-10-(methylsulfonyl)-5-oxo-3-(4-(trifluoromethyl)benzyl)-3,5-dihydro-2H-[1,4]oxazino[2,3,4-ij]quinoline-6-carboxamido)acetic acid]", "values": [{"measurement": "pIC50", "setting": "read-out: Human HIF-PHD2 IC50", "result": 9.00}]}, {"molecule": "N#Cc1cc2c3c(c1)c(O)c(C(=O)NCC(=O)O)c(=O)n3CC(c1ccc(C(F)(F)F)nc1)C2", "note": "(stereo not shown) [Example 84, 2-(9-cyano-1-hydroxy-3-oxo-6-(6-(trifluoromethyl)pyridin-3-yl)-3,5,6,7-tetrahydropyrido[3,2,1-ij]quinoline-2-carboxamido)acetic acid]", "values": [{"measurement": "pIC50", "setting": "read-out: Human HIF-PHD2 IC50", "result": 9.05}]}, {"molecule": "N#Cc1ccc2c3c1c(O)c(C(=O)NCC(=O)O)c(=O)n3C(Cc1ccc(C(F)(F)F)cc1)CO2", "note": "(stereo not shown) [Example 29, 2-(8-Cyano-7-hydroxy-5-oxo-3-(4-(trifluoromethyl)benzyl)-3,5-dihydro-2H-[1,4]oxazino[2,3,4-ij]quinoline-6-carboxamido)acetic acid]", "values": [{"measurement": "pIC50", "setting": "read-out: Human HIF-PHD2 IC50", "result": 8.89}]}, {"molecule": "O=C(O)CNC(=O)c1c(O)c2cccc3c2n(c1=O)CC(c1ccc(C(F)(F)F)nc1)S3", "note": "(stereo not shown) [Example 103, 2-(7-Hydroxy-5-oxo-2-(6-(trifluoromethyl)pyridin-3-yl)-3,5-dihydro-2H-[1,4]thiazino[2,3,4-ij]quinoline-6-carboxamido)acetic acid]", "values": [{"measurement": "pIC50", "setting": "read-out: Human HIF-PHD2 IC50", "result": 8.47}]}, {"molecule": "O=C(O)CNC(=O)c1c(O)c2cccc3c2n(c1=O)CC(c1cncs1)C3", "note": "(single isomer, unassigned) [Example 50a, 2-(1-Hydroxy-3-oxo-6-(thiazol-5-yl)-3,5,6,7-tetrahydropyrido[3,2,1-ij]quinoline-2-carboxamido)acetic acid]", "values": [{"measurement": "pIC50", "setting": "read-out: Human HIF-PHD2 IC50", "result": 8.17}]}, {"molecule": "CC(C)(O)c1cc2c3c(c1)c(O)c(C(=O)NCC(=O)O)c(=O)n3C(Cc1ccc(C(F)(F)F)cc1)CO2", "note": "(stereo not shown) [Example 36, 2-(7-Hydroxy-9-(2-hydroxypropan-2-yl)-5-oxo-3-(4-(trifluoromethyl)benzyl)-3,5-dihydro-2H-[1,4]oxazino[2,3,4-ij]quinoline-6-carboxamido)acetic acid]", "values": [{"measurement": "pIC50", "setting": "read-out: Human HIF-PHD2 IC50", "result": 7.77}]}, {"molecule": "O=C(O)CNC(=O)c1c(O)c2cccc3c2n(c1=O)CC(c1ccc(C(F)(F)F)nc1)S3(=O)=O", "note": "(stereo not shown) [Example 104, 2-(7-Hydroxy-1,1-dioxido-5-oxo-2-(6-(trifluoromethyl)pyridin-3-yl)-3,5-dihydro-2H-[1,4]thiazino[2,3,4-ij]quinoline-6-carboxamido)acetic acid]", "values": [{"measurement": "pIC50", "setting": "read-out: Human HIF-PHD2 IC50", "result": 8.20}]}, {"molecule": "N#Cc1cc2c3c(c1)c(O)c(C(=O)NCC(=O)O)c(=O)n3C(Cc1ccc(C(F)(F)F)cc1)CO2", "note": "(stereo not shown) [Example 4, 2-(9-Cyano-7-hydroxy-5-oxo-3-(4-(trifluoromethyl)benzyl)-3,5-dihydro-2H-[1,4]oxazino[2,3,4-ij]quinoline-6-carboxamido)acetic acid]", "values": [{"measurement": "pIC50", "setting": "read-out: Human HIF-PHD2 IC50", "result": 8.52}]}, {"molecule": "N#Cc1ccc2c(O)c(C(=O)NCC(=O)O)c(=O)n3c2c1NC(c1ccc(C(F)(F)F)cc1)C3", "note": "(stereo not shown) [Example 114, 2-(10-Cyano-7-hydroxy-5-oxo-2-(4-(trifluoromethyl)phenyl)-1,2,3,5-tetrahydropyrido[1,2,3-de]quinoxaline-6-carboxamido)acetic acid]", "values": [{"measurement": "pIC50", "setting": "read-out: Human HIF-PHD2 IC50", "result": 9.00}]}, {"molecule": "CS(=O)(=O)Nc1ccc(-c2ccc3c(O)c(C(=O)NCC(=O)O)c(=O)n4c3c2OCC4c2ccc(C(F)(F)F)cc2)cc1", "note": "(stereo not shown) [Example 134, N-[(7-Hydroxy-10-{4-[(methylsulfonyl)amino]phenyl}-5-oxo-3-[4-(trifluoromethyl)phenyl]-2,3-dihydro-5H-[1,4]oxazino[2,3,4-ij]quinolin-6-yl)carbonyl]glycine]", "values": [{"measurement": "pIC50", "setting": "read-out: Human HIF-PHD2 IC50", "result": 7.42}]}, {"molecule": "O=C(O)CNC(=O)c1c(O)c2c(F)ccc3c2n(c1=O)C(c1ccc(C(F)(F)F)cc1)CO3", "note": "(stereo not shown) [Example 162, 2-(8-fluoro-7-hydroxy-5-oxo-3-(4-(trifluoromethyl)phenyl)-3,5-dihydro-2H-[1,4]oxazino[2,3,4-ij]quinoline-6-carboxamido)acetic acid]", "values": [{"measurement": "pIC50", "setting": "[1]", "result": 7.82}]}, {"molecule": "N#Cc1cc2c3c(c1)c(O)c(C(=O)NCC(=O)O)c(=O)n3CC(c1ccc(C(F)(F)F)cc1)[S+]2[O-]", "note": "(stereo not shown) [Example 91, 2-(9-Cyano-7-hydroxy-1-oxido-5-oxo-2-(4-(trifluoromethyl)phenyl)-3,5-dihydro-2H-[1,4]thiazino[2,3,4-ij]quinoline-6-carboxamido)acetic acid]", "values": [{"measurement": "pIC50", "setting": "read-out: Human HIF-PHD2 IC50", "result": 9.08}]}, {"molecule": "COc1cncc(-c2ccc3c(O)c(C(=O)NCC(=O)O)c(=O)n4c3c2OCC4c2ccc(C(F)(F)F)cc2)c1", "note": "(stereo not shown) [Example 135, N-({7-hydroxy-10-(5-methoxypyridin-3-yl)-5-oxo-3-[4-(trifluoromethyl)phenyl]-2,3-dihydro-5H-[1,4]oxazino[2,3,4-ij]quinolin-6-yl}carbonyl)glycine]", "values": [{"measurement": "pIC50", "setting": "[1]", "result": 7.82}]}, {"molecule": "CC(=O)c1cc2c3c(c1)c(O)c(C(=O)NCC(=O)O)c(=O)n3C(Cc1ccc(C(F)(F)F)cc1)CO2", "note": "(stereo not shown) [Example 34, 2-(9-acetyl-7-hydroxy-5-oxo-3-(4-(trifluoromethyl)benzyl)-3,5-dihydro-2H-[1,4]oxazino[2,3,4-ij]quinoline-6-carboxamido)acetic acid]", "values": [{"measurement": "pIC50", "setting": "read-out: Human HIF-PHD2 IC50", "result": 8.49}]}, {"molecule": "O=C(O)CNC(=O)c1c(O)c2cccc3c2n(c1=O)CC(c1cncs1)C3", "note": "(racemic) [Example 50, 2-(1-Hydroxy-3-oxo-6-(thiazol-5-yl)-3,5,6,7-tetrahydropyrido[3,2,1-ij]quinoline-2-carboxamido)acetic acid]", "values": [{"measurement": "pIC50", "setting": "read-out: Human HIF-PHD2 IC50", "result": 8.14}]}, {"molecule": "CS(=O)(=O)c1cc2c3c(c1)c(O)c(C(=O)NCC(=O)O)c(=O)n3CC(c1ccc(C(F)(F)F)cc1)O2", "note": "(single isomer, unassigned) [Example 18, 2-(7-Hydroxy-9-(methylsulfonyl)-5-oxo-2-(4-(trifluoromethyl)phenyl)-3,5-dihydro-2H-[1,4]oxazino[2,3,4-ij]quinoline-6-carboxamido)acetic acid]", "values": [{"measurement": "pIC50", "setting": "read-out: Human HIF-PHD2 IC50", "result": 8.89}]}, {"molecule": "N#Cc1ccc(C2Cn3c(=O)c(C(=O)NCC(=O)O)c(O)c4c(OC(F)(F)F)ccc(c43)O2)cc1", "note": "(single isomer, unassigned) [Example 88, 2-(2-(4-Cyanophenyl)-7-hydroxy-5-oxo-8-(trifluoromethoxy)-3,5-dihydro-2H-[1,4]oxazino[2,3,4-ij]quinoline-6-carboxamido)acetic acid]", "values": [{"measurement": "pIC50", "setting": "read-out: Human HIF-PHD2 IC50", "result": 8.07}]}, {"molecule": "O=C(O)CNC(=O)c1c(O)c2c(F)ccc3c2n(c1=O)CC(c1ccc(C(F)(F)F)cc1)N3", "note": "(stereo not shown) [Example 119, 2-(8-Fluoro-7-hydroxy-5-oxo-2-(4-(trifluoromethyl)phenyl)-1,2,3,5-tetrahydropyrido[1,2,3-de]quinoxaline-6-carboxamido)acetic acid]", "values": [{"measurement": "pIC50", "setting": "read-out: Human HIF-PHD2 IC50", "result": 8.00}]}, {"molecule": "O=C(O)CNC(=O)c1c(O)c2ccc(Br)c3c2n(c1=O)CC(c1ccc(Br)cc1)O3", "note": "(stereo not shown) [Example 57, 2-(10-Bromo-2-(4-bromophenyl)-7-hydroxy-5-oxo-3,5-dihydro-2H-[1,4]oxazino[2,3,4-ij]quinoline-6-carboxamido)acetic acid]", "values": [{"measurement": "pIC50", "setting": "read-out: Human HIF-PHD2 IC50", "result": 8.57}]}, {"molecule": "O=C(O)CNC(=O)c1c(O)c2cccc3c2n(c1=O)C(c1ccc(C(F)(F)F)cc1)CO3", "note": "(single isomer, unassigned) [Example 1b, 2-(7-Hydroxy-5-oxo-3-(4-(trifluoromethyl)phenyl)-3,5-dihydro-2H-[1,4]oxazino[2,3,4-ij]quinoline-6-carboxamido)acetic acid]", "values": [{"measurement": "pIC50", "setting": "read-out: Human HIF-PHD2 IC50", "result": 7.88}]}, {"molecule": "CN1CC(c2ccc(C(F)(F)F)nc2)n2c(=O)c(C(=O)NCC(=O)O)c(O)c3cccc1c32", "note": "(stereo not shown) [Example 128, 2-(7-Hydroxy-1-methyl-5-oxo-3-(6-(trifluoromethyl)pyridin-3-yl)-1,2,3,5-tetrahydropyrido[1,2,3-de]quinoxaline-6-carboxamido)acetic acid]", "values": [{"measurement": "pIC50", "setting": "read-out: Human HIF-PHD2 IC50", "result": 8.16}]}, {"molecule": "Cc1ccc2c3c1c(O)c(C(=O)NCC(=O)O)c(=O)n3CC(c1ccc(C(F)(F)F)cc1)O2", "note": "(stereo not shown) [Example 63, 2-(7-Hydroxy-8-methyl-5-oxo-2-(4-(trifluoromethyl)phenyl)-3,5-dihydro-2H-[1,4]oxazino[2,3,4-ij]quinoline-6-carboxamido)acetic acid]", "values": [{"measurement": "pIC50", "setting": "read-out: Human HIF-PHD2 IC50", "result": 7.89}]}, {"molecule": "O=C(O)CNC(=O)c1c(O)c2cccc3c2n(c1=O)C(c1cncs1)CN3", "note": "(stereo not shown) [Example 111, 2-(7-Hydroxy-5-oxo-3-(thiazol-5-yl)-1,2,3,5-tetrahydropyrido[1,2,3-de]quinoxaline-6-carboxamido)acetic acid]", "values": [{"measurement": "pIC50", "setting": "read-out: Human HIF-PHD2 IC50", "result": 7.82}]}, {"molecule": "O=C(O)CNC(=O)c1c(O)c2cccc3c2n(c1=O)CC(c1ccc(C(F)(F)F)cc1)[S+]3[O-]", "note": "(stereo not shown) [Example 59, 2-(7-Hydroxy-1-oxido-5-oxo-2-(4-(trifluoromethyl)phenyl)-3,5-dihydro-2H-[1,4]thiazino[2,3,4-ij]quinoline-6-carboxamido)acetic acid]", "values": [{"measurement": "pIC50", "setting": "read-out: Human HIF-PHD2 IC50", "result": 9.00}]}]}
